Measured values reported in patent US5929038A, “Pharmaceutical preparations which inhibit hepatitis B virus (HBV) replication” (Choongwae Pharmaceutical Co., Ltd., priority 1992, dated 1999).
Several values for one entry are separate records, joined by “and”; a condition that tells them apart may be missing. Identical values can stand only once. Entries after “also recorded” stand apart in the source; their conditions may differ. Like-named read-outs stand apart in the source and are kept apart here.

What was measured:
[1] = test system: hepatic damage induced by carbon tetrachloride; conditions: laboratory animals; cited from earlier work
[2] = test system: gram positive bacteria; conditions: cited from earlier work
[3] = test system: 2.2.15 cells; assay: Cell toxicity test (neutral red dye uptake); type: cell-based; conditions: plate 23
Description: Toxicity testing was performed in 96-well flat bottomed tissue culture plates. These cells were cultured and treated on same schedule as the test compounds used for antiviral evaluation (example 1). Each group at four concentrations was tested in triplicate cultures. Uptake of neutral red dye was used to determine the relative level of toxicity. The absorbance of internalized dye at 510 nm (A510) was used for the quantitative analysis. Values are presented as a percentage of the average A510 values (mean ± standard deviation) in 9 separate cultures of untreated cells maintained on the same 96-well plate as used for the test compound. The percentage of dye uptake in the 9 controlled cultures on plate 23 was 100±4.

[4] = test system: HBV DNA replication; assay: Effects on HBV DNA replication in 2.2.15 cells in culture (intracellular HBV DNA and HBV virion DNA); type: cell-based, hepatitis B virus; conditions: for Intracellular HBV DNA, Mono. / Intracellular HBV DNA, RI (Replicating Intermediate): 24 hrs following the 9th day of treatment; for HBV Virion DNA, Day 0: Day 0, before first dose
[5] = test system: liver damage caused by α-amantin intoxication; conditions: mice; cited from earlier work
[6] = test system: Sarcoma 180 cells; conditions: cited from earlier work
[7] = test system: mice; type: in vivo; conditions: for Alkaline phosphatase / SGOT / Triglyceride: serum at 24 hours; for Fatalities: 24 hours, ten mice
[8] = 30 μM + 30'Gly. (incubated 30 min with glycosidase)
[9] = 30 μM + Gly. (first group, 123AE/AF/BE/BF)
[10] = 30 μM + Gly. (second group, 123AG/AH/BG/BH)
[11] = 100 μM + 30'Gly. (incubated 30 min with glycosidase)
[12] = 300 μM + 30'Gly. (incubated 30 min with glycosidase)
[13] = 300 μM + Gly. (glucosidase, no incubation)
[14] = 1000 μM + 30'Gly. (incubated 30 min with glycosidase)
[15] = 1000 μM + Gly. (glucosidase, no incubation)

## OCC1=CC(O)C2C=COC(O[C@@H]3O[C@H](CO)[C@@H](O)[C@H](O)[C@H]3O)C12 (stereo partly drawn) [Aucubin, 1,4,5, 7α-tetrahydro-5-hydroxy-17-(hydroxymethyl)cyclopenta[c]pyran-1-yl-β-D-glucopyranose]
[1]
  Liver-protective activity against carbon tetrachloride: protect the liver from hepatic damage induced by carbon tetrachloride intoxication
[2]
  Antibacterial activity: Antibacterial activity was noted mainly on gram positive bacteria
[3]; Aucubin + 30'GLY. (preincubated 30 min with glucosidase), 300 μM
  Amount of dye uptake: 99 ± 2 % of control
[3]; Aucubin + 30'GLY. (preincubated 30 min with glucosidase), 1000 μM
  Amount of dye uptake: 99 ± 2 % of control
[3]; Aucubin + 30'GLY. (preincubated 30 min with glucosidase), 3000 μM
  Amount of dye uptake: 82 ± 2 % of control
[3]; Aucubin + 30'GLY. (preincubated 30 min with glucosidase), 10,000 μM
  Amount of dye uptake: 67 ± 3 % of control
[3]; Aucubin + GLY. (glucosidase without preincubation), 300 μM
  Amount of dye uptake: 99 ± 2 % of control
[3]; Aucubin + GLY. (glucosidase without preincubation), 1000 μM
  Amount of dye uptake: 99 ± 1 % of control
[3]; Aucubin + GLY. (glucosidase without preincubation), 3000 μM
  Amount of dye uptake: 93 ± 5 % of control
[3]; Aucubin + GLY. (glucosidase without preincubation), 10,000 μM
  Amount of dye uptake: 63 ± 6 % of control
[3]; Aucubin alone, 300 μM
  Amount of dye uptake: 99 ± 1 % of control
[3]; Aucubin alone, 1000 μM
  Amount of dye uptake: 100 ± 1 % of control
[3]; Aucubin alone, 3000 μM
  Amount of dye uptake: 85 ± 3 % of control
[3]; Aucubin alone, 10,000 μM
  Amount of dye uptake: 45 ± 3 % of control
[4]
  inhibition of HBV DNA biosynthesis / antiviral activity (in words): exerts an antiviral activity aganist HBV infection; also recorded: marked inhibition of HBV DNA biosynthesis
[4]; [8]
  Intracellular HBV DNA, Mono.: 2.5 pg/μg cell DNA and 2.4 pg/μg cell DNA and 2.3 pg/μg cell DNA and 2.7 pg/μg cell DNA
  Intracellular HBV DNA, RI (Replicating Intermediate): 92 pg/μg cell DNA and 68 pg/μg cell DNA and 59 pg/μg cell DNA
[4]; 30 μM + 30'Gly.
  HBV Virion DNA, Day 0: 61 pg/ml culture medium and 79 pg/ml culture medium and 68 pg/ml culture medium
  HBV Virion DNA, Day 3: 85 pg/ml culture medium and 94 pg/ml culture medium and 51 pg/ml culture medium and 75 pg/ml culture medium
  HBV Virion DNA, Day 6: 70 pg/ml culture medium and 62 pg/ml culture medium and 55 pg/ml culture medium and 75 pg/ml culture medium
  HBV Virion DNA, Day 9: 80 pg/ml culture medium and 48 pg/ml culture medium and 87 pg/ml culture medium and 91 pg/ml culture medium
[4]; [9]
  Intracellular HBV DNA, Mono.: 2.6 pg/μg cell DNA and 2.8 pg/μg cell DNA and 2.4 pg/μg cell DNA and 2.1 pg/μg cell DNA
  Intracellular HBV DNA, RI (Replicating Intermediate): 21 pg/μg cell DNA and 27 pg/μg cell DNA and 22 pg/μg cell DNA and 26 pg/μg cell DNA
  HBV Virion DNA, Day 0: 52 pg/ml culture medium and 76 pg/ml culture medium and 55 pg/ml culture medium
  HBV Virion DNA, Day 3: 59 pg/ml culture medium and 77 pg/ml culture medium and 51 pg/ml culture medium
  HBV Virion DNA, Day 6: 40 pg/ml culture medium and 48 pg/ml culture medium and 66 pg/ml culture medium and 59 pg/ml culture medium
  HBV Virion DNA, Day 9: 15 pg/ml culture medium and 22 pg/ml culture medium
[4]; [10]
  Intracellular HBV DNA, Mono.: 2.6 pg/μg cell DNA and 2.8 pg/μg cell DNA and 2.4 pg/μg cell DNA and 2.1 pg/μg cell DNA
  Intracellular HBV DNA, RI (Replicating Intermediate): 70 pg/μg cell DNA and 75 pg/μg cell DNA and 63 pg/μg cell DNA and 68 pg/μg cell DNA
  HBV Virion DNA, Day 0: 67 pg/ml culture medium
  HBV Virion DNA, Day 3: 94 pg/ml culture medium and 82 pg/ml culture medium and 97 pg/ml culture medium and 62 pg/ml culture medium
  HBV Virion DNA, Day 6: 58 pg/ml culture medium and 61 pg/ml culture medium and 69 pg/ml culture medium
  HBV Virion DNA, Day 9: 55 pg/ml culture medium and 72 pg/ml culture medium and 70 pg/ml culture medium and 67 pg/ml culture medium
[4]; [11]
  Intracellular HBV DNA, Mono.: 2.5 pg/μg cell DNA and 2.4 pg/μg cell DNA and 2.3 pg/μg cell DNA and 2.7 pg/μg cell DNA
  Intracellular HBV DNA, RI (Replicating Intermediate): 33 pg/μg cell DNA and 32 pg/μg cell DNA and 27 pg/μg cell DNA and 26 pg/μg cell DNA
[4]; 100 μM + 30'Gly.
  HBV Virion DNA, Day 0: 55 pg/ml culture medium and 51 pg/ml culture medium and 86 pg/ml culture medium
  HBV Virion DNA, Day 3: 80 pg/ml culture medium and 49 pg/ml culture medium and 50 pg/ml culture medium and 57 pg/ml culture medium
  HBV Virion DNA, Day 6: 50 pg/ml culture medium and 66 pg/ml culture medium and 41 pg/ml culture medium and 45 pg/ml culture medium
  HBV Virion DNA, Day 9: 16 pg/ml culture medium
[4]; [12]
  Intracellular HBV DNA, Mono.: 2.4 pg/μg cell DNA and 2.6 pg/μg cell DNA and 1.9 pg/μg cell DNA and 2.0 pg/μg cell DNA
  Intracellular HBV DNA, RI (Replicating Intermediate): 11 pg/μg cell DNA and 10 pg/μg cell DNA and 7 pg/μg cell DNA and 9 pg/μg cell DNA
[4]; 300 μM + 30'Gly.
  HBV Virion DNA, Day 0: 88 pg/ml culture medium and 51 pg/ml culture medium and 50 pg/ml culture medium and 59 pg/ml culture medium
  HBV Virion DNA, Day 3: 80 pg/ml culture medium and 55 pg/ml culture medium and 61 pg/ml culture medium
  HBV Virion DNA, Day 6: 54 pg/ml culture medium and 39 pg/ml culture medium and 44 pg/ml culture medium
  HBV Virion DNA, Day 9: 9 pg/ml culture medium and 7 pg/ml culture medium and 6 pg/ml culture medium and 8 pg/ml culture medium
[4]; [13]
  Intracellular HBV DNA, Mono.: 2.0 pg/μg cell DNA and 2.4 pg/μg cell DNA and 2.5 pg/μg cell DNA
  Intracellular HBV DNA, RI (Replicating Intermediate): 7 pg/μg cell DNA and 6 pg/μg cell DNA and 5 pg/μg cell DNA and 9 pg/μg cell DNA
[4]; 300 μM + Gly.
  HBV Virion DNA, Day 0: 54 pg/ml culture medium and 59 pg/ml culture medium and 77 pg/ml culture medium and 66 pg/ml culture medium
  HBV Virion DNA, Day 3: 66 pg/ml culture medium and 89 pg/ml culture medium and 98 pg/ml culture medium
  HBV Virion DNA, Day 6: 54 pg/ml culture medium and 48 pg/ml culture medium and 44 pg/ml culture medium and 51 pg/ml culture medium
  HBV Virion DNA, Day 9: 9 pg/ml culture medium and 7 pg/ml culture medium and 5 pg/ml culture medium and 6 pg/ml culture medium
[4]; [14]
  Intracellular HBV DNA, Mono.: 2.3 pg/μg cell DNA and 2.0 pg/μg cell DNA and 2.1 pg/μg cell DNA
  Intracellular HBV DNA, RI (Replicating Intermediate): 3 pg/μg cell DNA and 2 pg/μg cell DNA and 4 pg/μg cell DNA
[4]; 1000 μM + 30'Gly.
  HBV Virion DNA, Day 0: 84 pg/ml culture medium and 70 pg/ml culture medium and 79 pg/ml culture medium and 59 pg/ml culture medium
  HBV Virion DNA, Day 3: 67 pg/ml culture medium and 66 pg/ml culture medium and 78 pg/ml culture medium
  HBV Virion DNA, Day 6: 20 pg/ml culture medium and 17 pg/ml culture medium and 24 pg/ml culture medium
  HBV Virion DNA, Day 9: 2 pg/ml culture medium and 3 pg/ml culture medium
[4]; [15]
  Intracellular HBV DNA, Mono.: 2.2 pg/μg cell DNA and 2.1 pg/μg cell DNA and 2.3 pg/μg cell DNA and 2.6 pg/μg cell DNA
  Intracellular HBV DNA, RI (Replicating Intermediate): 3 pg/μg cell DNA and 2 pg/μg cell DNA
[4]; 1000 μM + Gly.
  HBV Virion DNA, Day 0: 64 pg/ml culture medium and 81 pg/ml culture medium and 80 pg/ml culture medium
  HBV Virion DNA, Day 3: 70 pg/ml culture medium and 67 pg/ml culture medium
  HBV Virion DNA, Day 6: 25 pg/ml culture medium and 18 pg/ml culture medium and 22 pg/ml culture medium and 20 pg/ml culture medium
  HBV Virion DNA, Day 9: 1 pg/ml culture medium
[5]
  Liver-protective activity against α-amantin: protects the liver from damages caused by α-amantin intoxication in mice
[6]
  Inhibitory effects on RNA and protein biosynthesis: can exert inhibitory effects on RNA and protein biosynthesis in Sarcoma 180 cells
[7]; 100 mg/kg i.p.
  Alkaline phosphatase: 236 IU/L
  SGOT: 261 IU/L
[7]; 100 mg/kg intraperitoneal single dose
  Fatalities: 0 No.
[7]; 300 mg/kg i.p.
  Alkaline phosphatase: 157 IU/L
  SGOT: 194 IU/L
  Triglyceride: 35 mg/dL
[7]; 300 mg/kg intraperitoneal single dose
  Fatalities: 0 No.
[7]; 600 mg/kg i.p.
  Alkaline phosphatase: 135 IU/L
  SGOT: 179 IU/L
  Triglyceride: 39 mg/dL
[7]; 600 mg/kg intraperitoneal single dose
  Fatalities: 0 No.
[7]; 900 mg/kg i.p.
  SGOT: 162 IU/L
  Triglyceride: 51 mg/dL
[7]; 900 mg/kg intraperitoneal single dose
  Fatalities: 0 No.
[7]; 100-900 mg/kg i.p.
  fatality (in words): no fatality
[7]; high dose
  activities of SGOT and alkaline phosphatase: slight decline
  serious toxic effect (in words): no serious toxic effect occurred
  triglyceride contents: elevated slightly
[7]; mouse, in vivo, ip
  minimum fatal dose: more than 900 mg/kg
